Laboratory results taken from the supplement of paper PMC13380429.

How the values were obtained:
[1] = system: A549-ACE2 infected with SARS-CoV-2; assay: cell count relative to DMSO; higher = less toxic; settings: 24 h
Caco-2 [2] = assay: cell viability relative to DMSO; higher = less toxic; settings: 72 h
Calu-3 [3] = assay: as above; settings: 72 h
HepG2 [4] = assay: as above; settings: 72 h
U2OS [5] = assay: as above; settings: 72 h
Vero E6 [6] = assay: as above; settings: 72 h
[7] = system: A549-ACE2 infected with SARS-CoV-2; assay: SARS-CoV-2 infection rate relative to DMSO; higher = more infection; settings: 24 h
A549-ACE2 [8] = assay: phospholipidosis EC50; higher = less potent phospholipidosis inducer
A549-ACE2 [9] = assay: drug-induced phospholipidosis relative to tamoxifen; higher = more phospholipidosis
[10] = system: A549-ACE2 infected with SARS-CoV-2; assay: morphology score (similarity to uninfected cells); higher = more like uninfected cells; settings: 24 h
Caco-2 [11] = assay: relative viability EC50 (midpoint between 100% and the lowest measured viability); higher = less toxic; settings: 72 h
Calu-3 [12] = assay: as above; settings: 72 h
HepG2 [13] = assay: as above; settings: 72 h
U2OS [14] = assay: as above; settings: 72 h
Vero E6 [15] = assay: as above; settings: 72 h
Caco-2 [16] = assay: drug sensitivity score (DSS) for viability; higher = more toxic; extreme values may be limits of the assay; settings: 72 h
Calu-3 [17] = assay: as above; settings: 72 h
HepG2 [18] = assay: as above; settings: 72 h
U2OS [19] = assay: as above; settings: 72 h
Vero E6 [20] = assay: as above; settings: 72 h

COc1cc2c(NC3CCN(C(C)C)CC3)nc(C3CCCCC3)nc2cc1OCCCN1CCCC1 [UNC0638]
Settings	SARS-CoV-2 infection rate [%]	cell count [%]	cell viability [%]	morphology score	phospholipidosis EC50 [µM]
A549-ACE2 [8], 24 h	–	–	–	–	0.85
A549-ACE2 [8], 48 h	–	–	–	–	0.916
A549-ACE2 [8], 72 h	–	–	–	–	2.15
Caco-2 [2], 1 nM	–	–	99.2	–	–
Caco-2 [2], 10 nM	–	–	95.3	–	–
Caco-2 [2], 100 nM	–	–	98.5	–	–
Caco-2 [2], 1000 nM	–	–	96.7	–	–
Caco-2 [2], 10000 nM	–	–	90.3	–	–
Calu-3 [3], 1 nM	–	–	108	–	–
Calu-3 [3], 10 nM	–	–	106	–	–
Calu-3 [3], 100 nM	–	–	105	–	–
Calu-3 [3], 1000 nM	–	–	109	–	–
Calu-3 [3], 10000 nM	–	–	14.4	–	–
HepG2 [4], 1 nM	–	–	91.9	–	–
HepG2 [4], 10 nM	–	–	103	–	–
HepG2 [4], 100 nM	–	–	107	–	–
HepG2 [4], 1000 nM	–	–	114	–	–
HepG2 [4], 10000 nM	–	–	28.9	–	–
U2OS [5], 1 nM	–	–	103	–	–
U2OS [5], 10 nM	–	–	104	–	–
U2OS [5], 100 nM	–	–	99.7	–	–
U2OS [5], 1000 nM	–	–	98.5	–	–
U2OS [5], 10000 nM	–	–	79.5	–	–
Vero E6 [6], 1 nM	–	–	104	–	–
Vero E6 [6], 10 nM	–	–	106	–	–
Vero E6 [6], 100 nM	–	–	101	–	–
Vero E6 [6], 1000 nM	–	–	99.2	–	–
Vero E6 [6], 10000 nM	–	–	91.5	–	–
[1], 0.3 µM	–	104	–	–	–
[1], 3 µM	–	120	–	–	–
[1], 10 µM	–	120	–	–	–
[1], 30 µM	–	85	–	–	–
[7], 0.3 µM	92	–	–	–	–
[7], 3 µM	21	–	–	–	–
[7], 10 µM	13	–	–	–	–
[7], 30 µM	37	–	–	–	–
[10], 0.3 µM	–	–	–	0.28	–
[10], 3 µM	–	–	–	0.76	–
[10], 10 µM	–	–	–	0.07	–
[10], 30 µM	–	–	–	-0.22	–

drug-induced phospholipidosis [%], A549-ACE2 [9]
Settings	0.3 µM	0.833333 µM	3.33333 µM	6.66667 µM	10 µM	30 µM
24 h	19	47.5	80.5	93.8	106	38.3
48 h	20.5	48.8	76.7	97.3	89.8	–
72 h	16	32	73.7	84.2	95.7	–

Settings	drug sensitivity score	relative viability EC50 [µM]
Caco-2 [11]	–	> 10
Caco-2 [16]	0	–
Calu-3 [12]	–	3.67
Calu-3 [17]	4.1	–
HepG2 [13]	–	3.92
HepG2 [18]	3.1	–
U2OS [14]	–	> 10
U2OS [19]	0.8	–
Vero E6 [15]	–	> 10
Vero E6 [20]	0	–

CCOC(=O)C1=C(COCCN)NC(C)=C(C(=O)OC)C1c1ccccc1Cl (stereo not given) [amlodipine]
Settings	SARS-CoV-2 infection rate [%]	cell count [%]	cell viability [%]	morphology score	phospholipidosis EC50 [µM]
A549-ACE2 [8], 24 h	–	–	–	–	10.9
Caco-2 [2], 1 nM	–	–	97.9	–	–
Caco-2 [2], 10 nM	–	–	102	–	–
Caco-2 [2], 100 nM	–	–	98.2	–	–
Caco-2 [2], 1000 nM	–	–	93.5	–	–
Caco-2 [2], 10000 nM	–	–	94.2	–	–
Calu-3 [3], 1 nM	–	–	93.6	–	–
Calu-3 [3], 10 nM	–	–	104	–	–
Calu-3 [3], 100 nM	–	–	94.1	–	–
Calu-3 [3], 1000 nM	–	–	102	–	–
Calu-3 [3], 10000 nM	–	–	93.9	–	–
HepG2 [4], 1 nM	–	–	97.7	–	–
HepG2 [4], 10 nM	–	–	98.1	–	–
HepG2 [4], 100 nM	–	–	91.2	–	–
HepG2 [4], 1000 nM	–	–	99.2	–	–
HepG2 [4], 10000 nM	–	–	96.4	–	–
U2OS [5], 1 nM	–	–	94.8	–	–
U2OS [5], 10 nM	–	–	102	–	–
U2OS [5], 100 nM	–	–	96.6	–	–
U2OS [5], 1000 nM	–	–	101	–	–
U2OS [5], 10000 nM	–	–	97.5	–	–
Vero E6 [6], 1 nM	–	–	96.7	–	–
Vero E6 [6], 10 nM	–	–	90.2	–	–
Vero E6 [6], 100 nM	–	–	91.1	–	–
Vero E6 [6], 1000 nM	–	–	84.8	–	–
Vero E6 [6], 10000 nM	–	–	96.1	–	–
[1], 0.3 µM	–	96	–	–	–
[1], 3 µM	–	112	–	–	–
[1], 10 µM	–	119	–	–	–
[1], 30 µM	–	91	–	–	–
[7], 0.3 µM	107	–	–	–	–
[7], 3 µM	79	–	–	–	–
[7], 10 µM	23	–	–	–	–
[7], 30 µM	30	–	–	–	–
[10], 0.3 µM	–	–	–	-0.27	–
[10], 3 µM	–	–	–	0.49	–
[10], 10 µM	–	–	–	0.92	–
[10], 30 µM	–	–	–	0.35	–

drug-induced phospholipidosis [%], A549-ACE2 [9]
Settings	0.3 µM	0.833333 µM	3.33333 µM	6.66667 µM	10 µM	30 µM
24 h	4.07	-2.24	14.4	39.7	58.4	105
48 h	3.72	0.34	10.8	17.5	37	187
72 h	5.62	-0.058	6.8	13.1	21	181

Settings	drug sensitivity score	relative viability EC50 [µM]
Caco-2 [11]	–	> 10
Caco-2 [16]	0	–
Calu-3 [12]	–	> 10
Calu-3 [17]	0	–
HepG2 [13]	–	> 10
HepG2 [18]	0	–
U2OS [14]	–	> 10
U2OS [19]	0	–
Vero E6 [15]	–	> 10
Vero E6 [20]	0	–

CN1CCN(C2CCN(C(=O)Nc3cc(Oc4ccc(NC(=O)C5(C(=O)Nc6ccc(F)cc6)CC5)c(F)c4)ccn3)CC2)CC1 [golvatinib]
Settings	SARS-CoV-2 infection rate [%]	cell count [%]	cell viability [%]	morphology score	phospholipidosis EC50 [µM]
A549-ACE2 [8], 24 h	–	–	–	–	4.22
A549-ACE2 [8], 48 h	–	–	–	–	9.68
A549-ACE2 [8], 72 h	–	–	–	–	11.3
Caco-2 [2], 1 nM	–	–	102	–	–
Caco-2 [2], 10 nM	–	–	89.1	–	–
Caco-2 [2], 100 nM	–	–	95	–	–
Caco-2 [2], 1000 nM	–	–	87.9	–	–
Caco-2 [2], 10000 nM	–	–	44.2	–	–
Calu-3 [3], 1 nM	–	–	92.4	–	–
Calu-3 [3], 10 nM	–	–	105	–	–
Calu-3 [3], 100 nM	–	–	97.1	–	–
Calu-3 [3], 1000 nM	–	–	106	–	–
Calu-3 [3], 10000 nM	–	–	63.4	–	–
HepG2 [4], 1 nM	–	–	97.8	–	–
HepG2 [4], 10 nM	–	–	95.5	–	–
HepG2 [4], 100 nM	–	–	102	–	–
HepG2 [4], 1000 nM	–	–	77.6	–	–
HepG2 [4], 10000 nM	–	–	1.4	–	–
U2OS [5], 1 nM	–	–	96.7	–	–
U2OS [5], 10 nM	–	–	102	–	–
U2OS [5], 100 nM	–	–	97.6	–	–
U2OS [5], 1000 nM	–	–	104	–	–
U2OS [5], 10000 nM	–	–	61.2	–	–
Vero E6 [6], 1 nM	–	–	95.3	–	–
Vero E6 [6], 10 nM	–	–	97.5	–	–
Vero E6 [6], 100 nM	–	–	95	–	–
Vero E6 [6], 1000 nM	–	–	91.3	–	–
Vero E6 [6], 10000 nM	–	–	59.6	–	–
[1], 0.1 µM	–	94	–	–	–
[1], 0.3 µM	–	101	–	–	–
[1], 1 µM	–	103	–	–	–
[1], 3 µM	–	110	–	–	–
[7], 0.1 µM	107	–	–	–	–
[7], 0.3 µM	104	–	–	–	–
[7], 1 µM	95	–	–	–	–
[7], 3 µM	50	–	–	–	–
[10], 0.1 µM	–	–	–	-0.16	–
[10], 0.3 µM	–	–	–	-0.14	–
[10], 1 µM	–	–	–	0.12	–
[10], 3 µM	–	–	–	0.64	–

drug-induced phospholipidosis [%], A549-ACE2 [9]
Settings	0.3 µM	0.833333 µM	3.33333 µM	6.66667 µM	10 µM	30 µM
24 h	1.8	1.61	20.9	69	79.8	76.4
48 h	3.53	3.1	11.1	42.2	75.9	–
72 h	5.78	3.08	10.8	36.2	67.2	–

Settings	drug sensitivity score	relative viability EC50 [µM]
Caco-2 [11]	–	1.66
Caco-2 [16]	5	–
Calu-3 [17]	1.4	–
HepG2 [13]	–	1.63
HepG2 [18]	9	–
U2OS [19]	1.6	–
Vero E6 [20]	3.4	–
